Data from patent US20080096449A1, “USE OF METALLIC GLUCONATE SALTS IN THE PRODUCTION OF ANTIMICROBIALLY ACTIVE SUBSTRATES” (priority 2002, published 2008).

How the values were obtained:
Experiment in all cases: Minimum inhibitory concentration (MIC)
Type in all cases: cell-based
[1] = system: Staphylococcus aureus ATCC 6538; details: strain SA
[2] = system: Pseudomonas aeruginosa ATCC 9027; details: strain PA
[3] = system: Escherichia coli ATCC 11229; details: strain EC
[4] = system: Candida albicans ATCC 10231; details: strain CA
[5] = system: Aspergillus niger ATCC 16404; details: strain AN

zinc gluconate
MIC [1]: 5000 ppm | MIC [2]: 12500 ppm | MIC [3]: 6250 ppm | MIC [4]: 3120 ppm | MIC [5]: 6250 ppm
